Results as given in patent US12600725B2 (Memorial Sloan-Kettering Cancer Center, priority 2013, dated 2026).
“Also recorded” adds a separate entry of the source.

Legend:
[1] = test system: downstream EGFR signaling in MDA-MB-468 tumors; assay: PD analysis of tumors (Western blot); assay type: in vivo, mouse; details: 75 mg/kg ip
Description: For this purpose we used mice bearing MDA-MB-468 tumors (a triple-negative breast tumor with EGFR-overexpression). Because of the specific affinity of the provided Grp94 inhibitors for tumor Grp94, we performed PK/PD studies that are tailored for this purpose. In this PK/PD study we incorporated two time points, a 2 h and a 24 h time of sacrifice post-administration. The early time point is incorporated to test the biodistribution of the agent to the site of its action, the tumor; PU-WS13 was readily distributed to tumor mass with -850 μM noted in tumor at 2 h versus 100 μM in the plasma (FIG. 25A). […] The concentration of PU-WS13 in the tumor at 24 h post-administration of single dose of 75 mg/kg was 0.5 μM. […] We also analyzed the potential suppression by PU-WS13 of normal Grp94 functions. A “housekeeping” function for Grp94 was identified using a conditional knock-out mouse model; that study found a role for Grp94 in normal GI cells, i.e. regulation of the Wnt receptor LRP6 (Liu et al., Proc Natl Acad Sci USA. 2013 Apr. 23; 110(17):6877-82). […]
The other half of tumor tissues were evaluated for changes in EGFR and other PD markers as established in our laboratory. […] After quantifying the protein concentrations by BCA, 25-100ug proteins were loaded into SDS-PAGE and subjected to immunoblotting.

[2] = test system: Toll-like receptor 9 (TLR9) trafficking in HEK293 cells transfected with HA-TLR9; assay: TLR9-trafficking assay; assay type: cell-based, human; details: 24 h treatment
Description: TLR^9-trafficking assay (Yang, Y. et al. Heat shock protein gp96 is a master chaperone for toll-like receptors and is important in the innate function of macrophages. Immunity 26, 215-26 (2007)). HEK 293T cells were transfected with pUNO-hTLR9-HA (Invivogen) using X-tremgene HP (Roche) according to the manufacturer's instructions. At 24 hrs post-transfection, cells were split onto cell culture chamber slides (Lab-Tek). Cells were then treated for 24 hrs with indicated compound at varying concentrations. After treatment, cells were fixed for 20 min in 4% paraformaldehyde in PBS, permeabilized with 0.1% Triton-X 100 in PBS for 10 min, blocked with 3% BSA in PBS for 30 min, followed by staining for 1 hr with an anti-HA antibody (Abcam, ab9110) or a normal rabbit IgG. Cells were washed with PBS, stained with an anti-rabbit-Cy3 antibody (Invitrogen) and finally mounted in the dark at 4° C. with Prolong Gold Antifade reagent (with DAPI). Cells were visualized under a confocal microscope (Leica Upright Confocal SP5). Fluorescence intensity was quantified using MetaMorph Microscopy Automation and Image Analysis Software (Molecular Devices Inc.) and normalized to the cell number.

[3] = test system: TLR9 ligand CpG DNA induced TNF-α production in RAW 264.7 macrophages; assay: TNFα ELISA, CpG DNA stimulated macrophages; assay type: cell-based, mouse
HEK293 cells = assay: Toxicity to HEK293 cells; assay type: cell-based, human
Capan-2 cells = assay: Cell viability assessment (CellTiter-Glo); assay type: cell-based
CFPAC cells = assay: Cell viability assessment (CellTiter-Glo); assay type: cell-based
[4] = test system: Hsp70 induction and AKT degradation (cytosolic Hsp90 hallmarks) in C2C12 cells; assay: Western blot of Hsp70 induction and AKT degradation in C2C12 cells; assay type: cell-based, mouse; details: 24 hrs
Description: Cell fractionation and immunoblotting. Cells were either treated with DMSO (vehicle) or indicated compounds for 24 hr and lysed in RIPA buffer (50 mM Tris-HCl, pH 7.4, 150 mM NaCl, 0.5% sodium deoxycholate and 0.5% NP40) supplemented with cocktail protease inhibitors (Roche) to produce whole cell lysates. Lysates for cytosol and membrane fractions were harvested using ProteoExtract Subcellular Proteome Extraction Kit (Calbiochem) following the manufacturer's instructions. Protein concentrations were determined using BCA kit (Pierce) according to the manufacturer's instructions. […] After washing off the excess antibodies, the membranes were incubated with the corresponding horseradish peroxidase (HRP) conjugated secondary antibody. Blots were visualized by autoradiography using the Enhanced Chemiluminescence Detection System (GE Healthcare) according to manufacturer's instructions. For all gels 3-actin was used as a protein loading control.

[5] = test system: IGF1R and TGFbeta expressing ovarian cancer cell lines; assay: Apoptosis in ovarian cancer cell lines; assay type: cell-based
Description: (§1) Cell cycle and apoptosis assessment. Cell cycle and apoptosis were assessed by flow cytometry after single staining with propidium iodide (PI, BD Pharmingen) or double staining with AnnexinV-FITC (BD Pharmingen) and 7AAD (BD Pharmingen), respectively. Specifically, for cell cycle analysis, cells were washed twice with cold PBS and fixed in 70% ethanol overnight at 4° C. Fixed cells were collected at 1800 rpm for 10 min and stained with PBS containing PI and DNase-free RNase A (Sigma-Aldrich) for 1 h at room temperature in the dark. DNA content was measured by BD LSRII flow cytometer and cell further analyzed using program of cell cycle analysis in FloJo (Ashland, OR). The chicken erythrocyte nuclei singlets (CEN, Biosure) were used as the reference. For apoptosis assessment, live cells were collected, washed twice with cold PBS, resuspended in Binding Buffer and stained with AnnexinV-FITC and 7AAD for 15 min at room temperature in the dark. Signals from FL1 and FL3 channels were collected by MACSQuant analyzer and further analyzed using FloJo. Early apoptosis was defined as AnnexinV+/7AAD−, and late apoptosis was observed as AnnexinV+/7AAD+.

OE19 cells = assay: Apoptosis assessment (Annexin V / 7AAD); assay type: cell-based
Source text: (§2) Annexin V Apoptosis with 7-AAD has been specifically designed for the identification of apoptotic and necrotic cells. Annexin V (or Annexin A5) is a member of the annexin family of intracellular proteins that binds to phosphatidylserine (PS) in a calcium-dependent manner. PS is normally only found on the intracellular leaflet of the plasma membrane in healthy cells, but during early apoptosis, membrane asymmetry is lost and PS translocates to the external leaflet. Fluorochrome-labeled Annexin V can then be used to specifically target and identify apoptotic cells. Annexin V binding alone cannot differentiate between apoptotic and necrotic cells. To help distinguish between the necrotic and apoptotic cells 7-amino-actinomycin D (7-AAD) is used. Early apoptotic cells will exclude 7-AAD, while late stage apoptotic cells will stain positively, due to the passage of these dyes into the nucleus where they bind to DNA. 7-AAD (7-amino-actinomycin D) has a high DNA binding constant and is efficiently excluded by intact cells. It is useful for DNA analysis and dead cell discrimination during flow cytometric analysis. When excited by 488 laser light, 7-AAD fluorescence is detected in the far red range of the spectrum (650 nm long-pass filter).
as §1

NCI-N87 cells = assay: Apoptosis assessment (Annexin V / 7AAD); assay type: cell-based
Source text: as §2, §1

PANC-1 cells = assay: Apoptosis assessment (Annexin V / 7AAD); assay type: cell-based
Source text: as §2, §1

In the case of `CC(C)NCCCn1c(Sc2cc(Cl)cc(Cl)c2)nc2c(N)ncnc21` [PU-WS13], the “PD effect in tumor (p-AKT and p-ERK inhibition)” value [1] is reported as “partial suppression of downstream EGFR signaling”, the TLR9 trafficking [2] is reported as “inhibits TLR^9 trafficking” and the “CpG DNA induced TNF-α production” value [3] is reported as “inhibited this response in a concentration dependent manner; also recorded: inhibit”. The “toxicity to HEK293 cells” value (HEK293 cells) was “not toxic”, the “effect on cell growth” value (Capan-2 cells) was “no effect” and the “effect on cell growth” value (CFPAC cells) was “modest effect”. For the same compound, the AKT degradation [4] was “lack of Hsp70 induction and AKT degradation; also recorded: has no effect”, the Hsp70 induction [4] was “lack of Hsp70 induction; also recorded: has no effect” and the induction of apoptosis [5] was “induces apoptosis”. The “cells exhibiting markers of early- and late-stage apoptosis” value (OE19 cells) was “substantial increase”, the “cells exhibiting markers of early- and late-stage apoptosis” value (NCI-N87 cells) was “substantial increase” and the induction of apoptosis (PANC-1 cells) was “substantial increase; also recorded: more potent at killing cells through apoptosis”.
